Measurements published in PubChem BioAssay AID1963867 (Molecular Pharmacology Branch, DTP, NCI, 2024).

Test system: KRAS-mutant PDC tumor spheroid with HUVEC/MSC, viability
Assay: Anticancer human tumor 327498-153-R-J2-PDC patient-derived uterine carcinosarcoma cell line growth inhibition [KRAS2]
Conditions: for IC50: curve of first compound; for viability, T/C: stronger effect = lower value
Excerpt: Multicellular complex tumor spheroid response to RAS pathway inhibitors in combination with a targeted agents in patient-derived cell lines with oncogenic KRAS variants from multiple cancer types
A high-throughput screen of multi-cell type tumor spheroids was designed to identify active combinations of targeted small molecules and KRAS pathway inhibitors. Complex spheroids include a stromal component modeled by human endothelial cells (HUVEC) and fibroblasts modeled by human mesenchymal stem cells (MSCs). The concentration ranges selected for each drug and investigational agent were based upon clinically achievable concentrations if the clinical Cmax of the agent was known.
Compounds. The drugs and investigational agents: BI-3406 (NSC825286), BAY-293 (NSC824723), batoprotafib (TNO155; NSC825523), sotorasib (AMG 510; NSC818433), MRTX1257 (NSC819558), elimusertib (BAY 1895344; NSC800525), molibresib (GSK525762; NSC774829), temuterkib (LY3214996; NSC803410), venetoclax (NSC766270), alisertib (NSC759677), olaparib (NSC753686), talazoparib (NSC767125), erdafitinib (NSC781556), ipatasertib (NSC767898), cabozantinib (NSC761068), nintedanib (NSC756659), abemaciclib (NSC768073), docetaxel (NSC628503), trametinib (NSC758246), and sapanisertib (NSC764658) were obtained from the National Cancer Institute (NCI) Developmental Therapeutics Program Chemical Repository. The FDA-approved anticancer drug set is available from the Developmental Therapeutics Program. […] The stock solutions were prepared in dimethyl sulfoxide (DMSO, Sigma-Aldrich, St. Louis, MO, cat. D2650) at 800-fold the tested concentration and stored at -70 degrees C prior to their use. All drugs and investigational agents were tested over a range starting from a high concentration at or near the clinical Cmax and decreasing in half-log increments. If the clinical Cmax for an agent had not been determined, the highest concentration tested was 10 microM.
Cell Culture. All cells were maintained in an incubator at 37 degrees C and 5% CO2 with 95% humidity. The PDC lines were cultured according to standard operating procedures established by the NCI PDMR (https://pdmr.cancer.gov/sops/default.htm). Briefly, all PDCs were thawed and cultured in Matrigel-coated flasks prepared with a working solution of 1X Ham's F-12 nutrient mix, without supplementation (Invitrogen, Waltham, MA, cat. 11765054), 100 U/mL penicillin-streptomycin (Invitrogen, cat. 15140122), and 2.5% Matrigel (Corning Inc., Corning, NY, cat. 354248) for the first three passages. All PDCs were cultured in complete DMEM/F-12 media containing advanced DMEM/F-12 (Invitrogen, cat. 12634028), 4.9% defined fetal bovine serum, heat inactivated (HyClone Laboratories Inc., Logan, UT, cat. SH30070.03HI), 389 ng/mL hydrocortisone (Sigma-Aldrich, cat. H4001), 9.7 ng/mL human EGF recombinant protein (Invitrogen, cat. PHG0313), 23.4 microg/mL adenine (Sigma-Aldrich, cat. A2786), 97.3 U/mL penicillin-streptomycin (Invitrogen, cat. 15140122), 1.9 mM L-glutamine (Invitrogen, cat. 25030081), and 9.7 microM Y-27632 dihydrochloride (Tocris Bioscience, Bristol, United Kingdom, cat. 1254). The PDCs were cultured in complete DMEM/F12 media without 9.7 microM Y-27632 dihydrochloride for at least two passages prior to the screen. The established cell line HOP-62 was cultured in RPMI 1640 medium, HEPES (Invitrogen, cat. 22400105) with 10% defined fetal bovine serum (HyClone Laboratories Inc., cat. SH30070.03) and 2 mM L-glutamine (Invitrogen, cat. 25030081). The pooled donor HUVEC were cultured in endothelial cell growth medium 2 (PromoCell, Heidelberg, Germany, cat. C-22011) and the hMSC were cultured in mesenchymal stem cell growth medium 2 (PromoCell, cat. C-28009). For all experiments, HUVEC and hMSC were used at passages </=5, while the malignant cell lines were used at passages </=15. […]

[1] = second compound 0.1 µM, first compound 0.0316 µM
[2] = second compound 0.1 µM, first compound 0.1 µM
[3] = second compound 0.316 µM, first compound 0.0316 µM
[4] = second compound 0.316 µM, first compound 0.1 µM
[5] = second compound 1 µM, first compound 0.0316 µM
[6] = second compound 1 µM, first compound 0.1 µM
[7] = second compound 3.16 µM, first compound 0.0316 µM
[8] = second compound 3.16 µM, first compound 0.1 µM
[9] = second compound 10 µM, first compound 0.0316 µM
[10] = second compound 10 µM, first compound 0.1 µM
[11] = second compound 0.1 µM, first compound 0.316 µM
[12] = second compound 0.1 µM, first compound 1 µM
[13] = second compound 0.1 µM, first compound 3.16 µM
[14] = second compound 0.1 µM, first compound 10 µM
[15] = second compound 0.316 µM, first compound 0.316 µM
[16] = second compound 0.316 µM, first compound 1 µM
[17] = second compound 0.316 µM, first compound 3.16 µM
[18] = second compound 0.316 µM, first compound 10 µM
[19] = second compound 1 µM, first compound 0.316 µM
[20] = second compound 1 µM, first compound 1 µM
[21] = second compound 1 µM, first compound 3.16 µM
[22] = second compound 1 µM, first compound 10 µM
[23] = second compound 3.16 µM, first compound 0.316 µM
[24] = second compound 3.16 µM, first compound 1 µM
[25] = second compound 3.16 µM, first compound 3.16 µM
[26] = second compound 3.16 µM, first compound 10 µM
[27] = second compound 10 µM, first compound 0.316 µM
[28] = second compound 10 µM, first compound 1 µM
[29] = second compound 10 µM, first compound 3.16 µM
[30] = second compound 10 µM, first compound 10 µM
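Further: spheroids exposed to agents for seven days before reading.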
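Wherever viability, T/C is given: 100% = DMSO vehicle wells so lower means fewer viable cells.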

SMILES: CN(C)C/C=C/C(=O)Nc1cc2c(Nc3ccc(F)c(Cl)c3)ncnc2cc1O[C@H]1CCOC1 + C=CC(=O)N1CCN(c2nc(=O)n(-c3c(C)ccnc3C(C)C)c3nc(-c4c(O)cccc4F)c(F)cc23)C(C)C1
- IC50 (second compound 0.1 µM): < 0.316 nM
- IC50 (second compound 0.316 µM): > 100 nM
- IC50 (second compound 1 µM): > 100 nM
- IC50 (second compound 3.16 µM): > 100 nM
- IC50 (second compound 10 µM): > 100 nM
- viability, T/C (second compound 0.1 µM, first compound 0.000316 µM): 86.9%
- viability, T/C (second compound 0.1 µM, first compound 0.001 µM): 95.8%
- viability, T/C (second compound 0.1 µM, first compound 0.00316 µM): 102%
- viability, T/C (second compound 0.1 µM, first compound 0.01 µM): 101%
- viability, T/C [1]: 110%
- viability, T/C [2]: 109%
- viability, T/C (second compound 0.316 µM, first compound 0.000316 µM): 87.5%
- viability, T/C (second compound 0.316 µM, first compound 0.001 µM): 94.9%
- viability, T/C (second compound 0.316 µM, first compound 0.00316 µM): 97%
- viability, T/C (second compound 0.316 µM, first compound 0.01 µM): 106%
- viability, T/C [3]: 116%
- viability, T/C [4]: 115%
- viability, T/C (second compound 1 µM, first compound 0.000316 µM): 85.5%
- viability, T/C (second compound 1 µM, first compound 0.001 µM): 97.5%
- viability, T/C (second compound 1 µM, first compound 0.00316 µM): 92.8%
- viability, T/C (second compound 1 µM, first compound 0.01 µM): 101%
- viability, T/C [5]: 115%
- viability, T/C [6]: 103%
- viability, T/C (second compound 3.16 µM, first compound 0.000316 µM): 82.6%
- viability, T/C (second compound 3.16 µM, first compound 0.001 µM): 86.9%
- viability, T/C (second compound 3.16 µM, first compound 0.00316 µM): 91.8%
- viability, T/C (second compound 3.16 µM, first compound 0.01 µM): 96.7%
- viability, T/C [7]: 99.2%
- viability, T/C [8]: 96.7%
- viability, T/C (second compound 10 µM, first compound 0.000316 µM): 87.2%
- viability, T/C (second compound 10 µM, first compound 0.001 µM): 100%
- viability, T/C (second compound 10 µM, first compound 0.00316 µM): 99.6%
- viability, T/C (second compound 10 µM, first compound 0.01 µM): 105%
- viability, T/C [9]: 111%
- viability, T/C [10]: 115%

SMILES: COC(=O)c1ccc2c(C(=Nc3ccc(N(C)C(=O)CN4CCN(C)CC4)cc3)c3ccccc3)c(O)[nH]c2c1 + C=CC(=O)N1CCN(c2nc(=O)n(-c3c(C)ccnc3C(C)C)c3nc(-c4c(O)cccc4F)c(F)cc23)C(C)C1
- IC50 (second compound 0.1 µM): 68.6 nM
- IC50 (second compound 0.316 µM): < 31.6 nM
- IC50 (second compound 1 µM): < 31.6 nM
- IC50 (second compound 3.16 µM): < 31.6 nM
- IC50 (second compound 10 µM): < 31.6 nM
- viability, T/C [1]: 55.6%
- viability, T/C [2]: 47%
- viability, T/C [11]: 33.8%
- viability, T/C [12]: 21.5%
- viability, T/C [13]: 8.48%
- viability, T/C [14]: 8.12%
- viability, T/C [3]: 48.5%
- viability, T/C [4]: 46.1%
- viability, T/C [15]: 31.3%
- viability, T/C [16]: 12.5%
- viability, T/C [17]: 6.86%
- viability, T/C [18]: 4.83%
- viability, T/C [5]: 46%
- viability, T/C [6]: 44.4%
- viability, T/C [19]: 27.5%
- viability, T/C [20]: 16.6%
- viability, T/C [21]: 7.4%
- viability, T/C [22]: 3.38%
- viability, T/C [7]: 42.4%
- viability, T/C [8]: 35%
- viability, T/C [23]: 19.1%
- viability, T/C [24]: 11.5%
- viability, T/C [25]: 6.26%
- viability, T/C [26]: 4.47%
- viability, T/C [9]: 39%
- viability, T/C [10]: 31.1%
- viability, T/C [27]: 22.9%
- viability, T/C [28]: 13.2%
- viability, T/C [29]: 3.4%
- viability, T/C [30]: 1.04%

SMILES: O=C(c1cc(Cc2n[nH]c(=O)c3ccccc23)ccc1F)N1CCN(C(=O)C2CC2)CC1 + C=CC(=O)N1CCN(c2nc(=O)n(-c3c(C)ccnc3C(C)C)c3nc(-c4c(O)cccc4F)c(F)cc23)C(C)C1
- IC50 (second compound 0.1 µM): 970 nM
- IC50 (second compound 0.316 µM): 713 nM
- IC50 (second compound 1 µM): 588 nM
- IC50 (second compound 3.16 µM): 488 nM
- IC50 (second compound 10 µM): < 31.6 nM
- viability, T/C [1]: 60.2%
- viability, T/C [2]: 57.3%
- viability, T/C [11]: 65.3%
- viability, T/C [12]: 48.8%
- viability, T/C [13]: 23.6%
- viability, T/C [14]: 16.3%
- viability, T/C [3]: 59.5%
- viability, T/C [4]: 59.4%
- viability, T/C [15]: 57.5%
- viability, T/C [16]: 46.8%
- viability, T/C [17]: 21.9%
- viability, T/C [18]: 15.2%
- viability, T/C [5]: 66.3%
- viability, T/C [6]: 60.1%
- viability, T/C [19]: 56%
- viability, T/C [20]: 46.2%
- viability, T/C [21]: 26.5%
- viability, T/C [22]: 16.4%
- viability, T/C [7]: 66%
- viability, T/C [8]: 61.2%
- viability, T/C [23]: 51.7%
- viability, T/C [24]: 46.4%
- viability, T/C [25]: 22.6%
- viability, T/C [26]: 18.2%
- viability, T/C [9]: 49.5%
- viability, T/C [10]: 48.2%
- viability, T/C [27]: 47.3%
- viability, T/C [28]: 36.3%
- viability, T/C [29]: 24.8%
- viability, T/C [30]: 18.9%
